In ChEMBL document CHEMBL1926642, “Relevance of the C-5 position to schweinfurthin induced cytotoxicity” (2011):

Legend:
Assay type in all cases: functional
SNB-75 = experiment: Growth inhibition of human SNB75 cells after 48 hrs by sulforhodamine B assay; settings: SNB-75, 48 h; for TGI: read-out: pTGI (converted)
MCF7 = experiment: Growth inhibition of human MCF7 cells after 48 hrs by sulforhodamine B assay; settings: MCF7, 48 h
SNB-19 = experiment: Growth inhibition of human SNB19 cells after 48 hrs by sulforhodamine B assay; settings: SNB-19, 48 h; for TGI: read-out: pTGI (converted)
NCI-H522 = experiment: Growth inhibition of human NCI-H522 cells after 48 hrs by sulforhodamine B assay; settings: NCI-H522, 48 h; for TGI: read-out: pTGI (converted)
A498 = experiment: Growth inhibition of human A498 cells after 48 hrs by sulforhodamine B assay; settings: A498, 48 h; for TGI: read-out: pTGI (converted)
HT-29 = experiment: Growth inhibition of human HT-29 cells after 48 hrs by sulforhodamine B assay; settings: HT-29, 48 h; for TGI: read-out: pTGI (converted)
MDA-MB-435 = experiment: Growth inhibition of human MDA-MB-435 cells after 48 hrs by sulforhodamine B assay; settings: MDA-MB-435, 48 h; for TGI: read-out: pTGI (converted)
COLO 205 = experiment: Growth inhibition of human COLO205 cells after 48 hrs by sulforhodamine B assay; settings: COLO 205, 48 h; for TGI: read-out: pTGI (converted)
SK-MEL-28 = experiment: Growth inhibition of human SK-MEL-28 cells after 48 hrs by sulforhodamine B assay; settings: SK-MEL-28, 48 h; for CC50: read-out: pLC50 (the source's name) (converted); for TGI: read-out: pTGI (converted)
SW-620 = experiment: Growth inhibition of human SW620 cells after 48 hrs by sulforhodamine B assay; settings: SW-620, 48 h; for TGI: read-out: pTGI (converted)
SF-268 = experiment: Growth inhibition of human SF268 cells after 48 hrs by sulforhodamine B assay; settings: SF-268, 48 h; for TGI: read-out: pTGI (converted)
M14 = experiment: Growth inhibition of human M14 cells after 48 hrs by sulforhodamine B assay; settings: M14, 48 h; for TGI: read-out: pTGI (converted)
ACHN = experiment: Growth inhibition of human ACHN cells after 48 hrs by sulforhodamine B assay; settings: for TGI: read-out: pTGI (converted)
UACC-62 = experiment: Growth inhibition of human UACC62 cells after 48 hrs by sulforhodamine B assay; settings: UACC-62, 48 h; for TGI: read-out: pTGI (converted)
NCI/ADR-RES = experiment: Growth inhibition of human NCI/ADR-RES cells after 48 hrs by sulforhodamine B assay; settings: for TGI: read-out: pTGI (converted)
BT-549 = experiment: Growth inhibition of human BT549 cells after 48 hrs by sulforhodamine B assay; settings: BT-549, 48 h; for TGI: read-out: pTGI (converted)
MDA-MB-468 = experiment: Growth inhibition of human MDA-MB-468 cells after 48 hrs by sulforhodamine B assay; settings: MDA-MB-468, 48 h; for TGI: read-out: pTGI (converted)
A549 = experiment: Growth inhibition of human A549 cells after 48 hrs by sulforhodamine B assay; settings: A549, 48 h; for TGI: read-out: pTGI (converted)
HOP-92 = experiment: Growth inhibition of human HOP92 cells after 48 hrs by sulforhodamine B assay; settings: HOP-92, 48 h; for TGI: read-out: pTGI (converted)
LOX IMVI = experiment: Growth inhibition of human LOXIMVI cells after 48 hrs by sulforhodamine B assay; settings: for TGI: read-out: pTGI (converted)
RXF 393 = experiment: Growth inhibition of human RXF393 cells after 48 hrs by sulforhodamine B assay; settings: RXF 393, 48 h; for TGI: read-out: pTGI (converted)
786-0 = experiment: Growth inhibition of human 786-0 cells after 48 hrs by sulforhodamine B assay; settings: 786-0, 48 h; for CC50: read-out: pLC50 (the source's name) (converted); for TGI: read-out: pTGI (converted)
Malme-3M = experiment: Growth inhibition of human MALME-3M cells after 48 hrs by sulforhodamine B assay; settings: for TGI: read-out: pTGI (converted)
UACC-257 = experiment: Growth inhibition of human UACC257 cells after 48 hrs by sulforhodamine B assay; settings: UACC-257, 48 h; for TGI: read-out: pTGI (converted)
SF-539 = experiment: Growth inhibition of human SF539 cells after 48 hrs by sulforhodamine B assay; settings: SF-539, 48 h; for TGI: read-out: pTGI (converted)
PC-3 = experiment: Growth inhibition of human PC3 cells after 48 hrs by sulforhodamine B assay; settings: PC-3, 48 h; for CC50: read-out: pLC50 (the source's name) (converted); for TGI: read-out: pTGI (converted)
DU-145 = experiment: Growth inhibition of human DU145 cells after 48 hrs by sulforhodamine B assay; settings: DU-145, 48 h

## COc1cc(/C=C/c2cc(F)c3c(c2)C[C@@H]2C(C)(C)[C@H](O)CC[C@@]2(C)O3)cc(O)c1C/C=C(\C)CCC=C(C)C
SNB-75
  GI50: 2.95 µM
  LC50: 37.2 µM
  TGI: 13.8 µM
MCF7
  GI50: 13.8 µM
  LC50: 64.6 µM
MCF7; read-out: pTGI (converted)
  TGI: 30.2 µM
SNB-19
  GI50: 12.6 µM
  LC50: 55 µM
  TGI: 26.3 µM
NCI-H522
  GI50: 2.19 µM
  LC50: 30.9 µM
  TGI: 6.92 µM
A498
  GI50: 28.8 µM
  LC50: > 100 µM
  TGI: > 100 µM
HT-29
  GI50: 2.57 µM
  LC50 (concentration killing 50% of cells): 41.7 µM
  TGI: 11 µM
MDA-MB-435
  GI50: 13.2 µM
  LC50: 63.1 µM
  TGI: 28.8 µM
COLO 205
  GI50: 12 µM
  LC50: 55 µM
  TGI: 25.7 µM
SK-MEL-28
  GI50: 12 µM
  CC50: 56.2 µM
  TGI: 25.7 µM
SW-620
  GI50: 3.02 µM
  LC50: 33.1 µM
  TGI: 9.12 µM
SF-268
  GI50: 10.5 µM
  LC50: 63.1 µM
  TGI: 25.7 µM
M14
  GI50: 12.9 µM
  LC50: 57.5 µM
  TGI: 26.9 µM
ACHN
  GI50: 11.7 µM
  LC50: 58.9 µM
  TGI: 26.3 µM
UACC-62
  GI50: 14.1 µM
  LC50 (50% lethal concentration): 63.1 µM
  TGI: 29.5 µM
NCI/ADR-RES
  GI50: 3.89 µM
  LC50: 50.1 µM
  TGI: 14.1 µM
BT-549
  GI50: 9.12 µM
  LC50: > 100 µM
  TGI: 37.2 µM
MDA-MB-468
  GI50: 6.61 µM
  LC50: 45.7 µM
  TGI: 20 µM
A549
  LC50: 15.8 µM
  TGI: 4.9 µM
A549; read-out: GI50
  GI50: 2.14 µM
A549; read-out: pGI50 (converted)
  GI50: 2.14 µM
HOP-92
  GI50: 3.39 µM
  LC50: 57.5 µM
  TGI: 12.6 µM
LOX IMVI
  GI50: 1.38 µM
  LC50: 6.17 µM
  TGI: 2.88 µM
RXF 393
  GI50: 1.82 µM
  LC50 (50% lethal concentration): 10 µM
  TGI: 4.27 µM
786-0
  GI50: 3.31 µM
  CC50: 38.9 µM
  TGI: 10.2 µM
Malme-3M
  GI50: 14.8 µM
  LC50: 89.1 µM
  TGI: 36.3 µM
UACC-257
  GI50: 16.2 µM
  LC50: 93.3 µM
  TGI: 38.9 µM
SF-539
  GI50: 3.89 µM
  LC50: 43.7 µM
  TGI: 14.1 µM
PC-3
  GI50: 5.13 µM
  CC50: > 100 µM
  TGI: 25.1 µM

## COCOc1cc(/C=C/c2cc(C=O)c3c(c2)C[C@@H]2C(C)(C)[C@H](O)CC[C@@]2(C)O3)cc(OC)c1C/C=C(\C)CCC=C(C)C
SNB-75
  GI50: 1.62 µM
  LC50: > 100 µM
  TGI: > 100 µM
SNB-19
  GI50: 16.6 µM
  LC50: > 100 µM
  TGI: > 100 µM
NCI-H522
  GI50: 18.2 µM
  LC50: > 100 µM
  TGI: > 100 µM
A498
  GI50: 7.59 µM
  LC50: > 100 µM
  TGI: > 100 µM
HT-29
  GI50: 4.37 µM
  LC50 (concentration killing 50% of cells): > 100 µM
  TGI: > 100 µM
MDA-MB-435
  GI50: 6.76 µM
  LC50: > 100 µM
  TGI: 69.2 µM
COLO 205
  GI50: 3.47 µM
  LC50: 51.3 µM
  TGI: 9.33 µM
SK-MEL-28
  GI50: 2.95 µM
  CC50: > 100 µM
  TGI: > 100 µM
SW-620
  GI50: 10.2 µM
  LC50: > 100 µM
  TGI: 44.7 µM
SF-268
  GI50: 11 µM
  LC50: > 100 µM
  TGI: 85.1 µM
M14
  GI50: 11.2 µM
  LC50: > 100 µM
  TGI: 64.6 µM
ACHN
  GI50: 7.94 µM
  LC50: > 100 µM
  TGI: > 100 µM
UACC-62
  GI50: 4.07 µM
  LC50 (50% lethal concentration): > 100 µM
  TGI: > 100 µM
NCI/ADR-RES
  GI50: 21.4 µM
  LC50: > 100 µM
  TGI: > 100 µM
BT-549
  GI50: 3.89 µM
  LC50: > 100 µM
  TGI: 63.1 µM
MDA-MB-468
  GI50: 4.9 µM
  LC50: > 100 µM
  TGI: 46.8 µM
A549
  LC50: > 100 µM
  TGI: > 100 µM
A549; read-out: GI50
  GI50: 7.8 µM
A549; read-out: pGI50 (converted)
  GI50: 7.76 µM
HOP-92
  GI50: 15.8 µM
  LC50: > 100 µM
  TGI: > 100 µM
LOX IMVI
  GI50: 3.98 µM
  LC50: 44.7 µM
  TGI: 15.8 µM
RXF 393
  GI50: 0.309 µM
  LC50 (50% lethal concentration): 12.3 µM
  TGI: 1.32 µM
786-0
  GI50: 1.02 µM
  CC50: > 100 µM
  TGI: > 100 µM
Malme-3M
  GI50: 7.94 µM
  LC50: > 100 µM
  TGI: 95.5 µM
UACC-257
  GI50: 3.98 µM
  LC50: > 100 µM
  TGI: 49 µM
SF-539
  GI50: 0.891 µM
  LC50: > 100 µM
  TGI: 12.9 µM
DU-145
  GI50: 13.5 µM
  LC50: > 100 µM
DU-145; read-out: pTGI (converted)
  TGI: > 100 µM
PC-3
  GI50: 8.13 µM
  CC50: > 100 µM
  TGI: > 100 µM
